Experimental data published in patent US5952183A, “Synthesis of estrogen-purine base and estrogen-mercapturate adducts and development of fluorescent probes and monoclonal antibodies to assay those adducts” (priority 1998, dated 1999).
Read-outs that look alike come from different tables or passages of the source.

Assays:
[1] = published isomerization study of model o-quinone; cited from earlier work
DNA, rat mammary gland = test: Formation of depurinating DNA adducts in the rat mammary gland; format: in vivo
DNA = test: Formation of DNA adducts by quinones or horseradish peroxidase-activated catechol estrogens in vitro (32P-postlabeling for stable adducts); format: biochemical
Text: First, the o-quinones of estrogens are capable of binding directly to the nucleophilic groups of DNA bases. Second, the 3,4-quinones of estrogens produce depurinating adducts that are lost from DNA, generating apurinic sites in the DNA; and third, the 2,3-quinones form stable adducts that remain bound to DNA if not repaired. In fact, reaction of 2,3- and 3,4-quinones with DNA or CE activated by horseradish peroxidase in the presence of DNA affords differential formation of stable adducts, as evidenced by 32P-postlabeling analysis. The 2,3-quinones form 10-50 times higher levels of stable adducts than the 3,4-quinones.

hamster kidney = details: Syrian golden hamsters; cited from earlier work
[2] = 1H-NMR monitoring of E1-2,3-Q to quinone methide tautomerization in CH3CN-d3; format: physicochemical
[3] = Stability of estrogen quinones at various pH (remaining quinone by HPLC); format: physicochemical
Experimental: Because acidic conditions were used to generate these estrogen-nucleoside adducts, an investigation was conducted of the effects of pH on the stability of both the 3,4- and 2,3-quinones.
^a pH was adjusted with the following buffers: pH 9, trisHCl; pH 7,
distilled H2 O; […]; pH 3, citric acid.
^b t1/2 is defined as the time when 1/2 of the original quinone
concentration was observed by HPLC
^c Quinones (0.02 mmol) were synthesized in 2 mL of CH3 CN and
placed in 10 mL of aqueous buffer

Which “o-quinone more stable when tautomerized to the QM by” value [1] does the source give for O=C1C=C2CCCCC2=CC1=O here?
Its value is 3.8 kcal/mol.

With C[C@]12CC[C@@H]3c4ccc(O)c(O)c4CC[C@H]3[C@@H]1CCC2=O [4-OHE1, 4-hydroxyestrone] as the compound, how does the “formation of depurinating E1(E2)-1-(α,β)-N7Gua adducts” value (“formation” below) (DNA, rat mammary gland; rat, in vivo) read?
Its value is “almost exclusively”.

And the “formation” value (DNA)?
The value was “almost exclusively”.

For C[C@]12CC[C@@H]3c4ccc(O)c(O)c4CC[C@H]3[C@@H]1CC[C@@H]2O [4-OHE2, 4-hydroxyestradiol], which “formation” value (DNA, rat mammary gland; rat mammary gland) is on record?
The value was “almost exclusively”.

What about the “formation” value (DNA; in vitro, 3,4-quinones or enzymically-activated 4-OHE1/4-OHE2) of the same compound?
The value was “almost exclusively”.

For C[C@]12CC[C@@H]3c4ccc(O)cc4CC[C@H]3[C@@H]1CCC2=O [E1, estrone], which “induction of renal tumors / carcinogenicity” value (hamster kidney) is on record?
The value was “Malignant renal tumors are induced”.

With C[C@]12CC[C@@H]3C4=CC(=O)C(=O)C=C4CC[C@H]3[C@@H]1CCC2=O [E1-2,3-Q] as the compound, how does the “change of 1H-NMR spectrum over time” value ([2]; CH3CN-d3, two days) read?
The value was “unchanged for two days”.

And the “change of o-quinone 1H-NMR spectrum over time with acid” value ([2]; CH3CN-d3 with CF3CO2H-d, two weeks)?
Its value is “no change in the o-quinone spectrum was observed”.

And the “effect of lowering pH on stability” value [3]?
Its value is “did not”.

And the “decomposition under mildly basic conditions” value [3]?
Its value is “decomposed rapidly”.

And the half-life ([3]; pH 3, citric acid, read-out: t1/2 (time when 1/2 of the original quinone concentration was observed by HPLC))?
Its half-life is 1.17 h.

And the half-life ([3]; pH 5, trizma, read-out: t1/2 (time when 1/2 of the original quinone concentration was observed by HPLC))?
The half-life was 1.83 h.

And the half-life ([3]; pH 7, distilled H2O, read-out: t1/2 (time when 1/2 of the original quinone concentration was observed by HPLC))?
Its half-life is 1.83 h.

What about the half-life ([3]; pH 9, trisHCl, read-out: t1/2 (time when 1/2 of the original quinone concentration was observed by HPLC)) of the same compound?
Its half-life is less than 0.0833 h.

Which “effect of lowering pH on stability” value [3] does the source give for C[C@]12CC[C@@H]3C4=C(CC[C@H]3[C@@H]1CCC2=O)C(=O)C(=O)C=C4 [E1-3,4-Q] here?
The value was “marked increase in stability”.

And the half-life ([3]; citric acid, pH 3)?
The half-life was 6.5 h.

What about the half-life ([3]; distilled h2o, pH 7) of the same compound?
The half-life was 1.83 h.

And the “decomposition under mildly basic conditions” value [3]?
The value was “decomposed rapidly”.

And the half-life ([3]; trishcl, pH 9)?
Its half-life is less than 0.0833 h.

And the half-life ([3]; trizma, pH 5)?
Its half-life is 3.17 h.

Which “induction of renal tumors / carcinogenicity” value (hamster kidney) does the source give for C[C@]12CC[C@@H]3c4ccc(O)cc4CC[C@H]3[C@@H]1CC[C@@H]2O [E2, 17β-estradiol] here?
Its value is “Malignant renal tumors are induced”.
